{"source": "patent US20120183536A1", "about": "“METHODS OF USING CORTICOTROPIN-RELEASING FACTOR FOR THE TREATMENT OF CANCER” (priority 2009, published 2012)", "key": {"[1]": {"test_system": "brain tumor in metastatic patients", "assay": "Clinical study: metastatic patients, brain tumor size by MRI and survival", "format": "in vivo, human", "conditions": "2 mg/day s.c."}, "malignant brain tumor": {"test_system": "malignant brain tumor", "assay": "Clinical study: patients with malignant brain tumor, tumor size by MRI and survival", "format": "in vivo, human", "method": "Patients with malignant brain tumor were treated with 2 mg/day (1 mg dose, twice daily) of either human CRF subcutaneously. […] Additionally, of the 30 patients who had received treatment for at least 6 months, 10 experienced a decrease in tumor size."}, "[2]": {"test_system": "MX-1 human breast carcinoma", "assay": "MX-1 human breast carcinoma xenograft in nu/nu mice, tumor volume", "format": "in vivo", "method": "(§1) In another study, 8-12 week old female nu/nu mice were injected with 1 mm^3 tumor fragments of MX-1 human breast carcinoma subcutaneously. Once tumors developed and reached an average size of 80-120 mg, mice received administration of: (1) saline (control) (twice daily, subcutaneous); (2) CRF (100 μg/kg) (twice daily, subcutaneous); (3) CRF (200 μg/kg) (twice daily, subcutaneous); (4) bevacizumab (Avastin®) (5 mg/kg) (twice weekly, intraperitoneal); or (5) CRF (200 μg/kg) (twice daily, subcutaneous) and bevacizumab (Avastin®) (5 mg/kg) (twice weekly, intraperitoneal) (FIG. 13A). Body weight and tumor volume were measured twice a week until the endpoint of the experiment, i.e., the earlier of either 60 days or achieving a tumor weight of 1.5 g.)."}, "U87 Fluc brain tumor": {"test_system": "U87 Fluc brain tumor", "source_text": "The results were obtained with SCID mice bearing brain tumors produced by injection with the human glioblastoma cell line U87 Flue. The U87 Flue cell line was created by stably transducing U87 cells with a lentiviral construct containing the luc gene."}, "[3]": {"test_system": "human Non-Small Cell Lung Carcinoma (NSCLC) tumor cell lines", "assay": "human Non-Small Cell Lung Carcinoma xenograft in nu/nu mice, tumor volume", "format": "in vivo", "method": "as §1, with “a second” for “another”, “of” for “of MX-1”, “Non-Small Cell Lung Carcinoma (NSCLC) tumor cell lines” for “breast carcinoma”, “12A).” for “13A).”, “2” for “1.5”"}, "[4]": {"test_system": "Colo205 human colon tumor cells", "assay": "Colo205 human colon tumor xenograft in nu/nu mice, tumor volume", "format": "in vivo", "method": "In one study, 8-12 week old female nu/nu mice were injected with 1×10^6 Colo205 human colon tumor cells subcutaneously. Once tumors developed and reached an average size of 100-150 mg, mice received administration of: (1) saline (control) (twice daily, subcutaneous); (2) CRF (100 μg/kg) (twice daily, subcutaneous); (3) CRF (200 μg/kg) (twice daily, subcutaneous); (4) bevacizumab (Avastin®) (5 mg/kg) (twice weekly, intraperitoneal); or (5) CRF (200 μg/kg) (twice daily, subcutaneous) and bevacizumab (Avastin®) (5 mg/kg) (twice weekly, intraperitoneal) (FIG. 11A). Body weight and tumor volume were measured twice a week until the endpoint of the experiment, i.e., the earlier of either 60 days or a tumor volume of 1000 mm^3."}, "[5]": {"conditions": "of the 3 metastatic patients of FIG. 10"}, "[6]": {"conditions": "CRF 100 or 200 μg/kg twice daily, subcutaneous"}, "[7]": {"conditions": "low dose of CRF, 30 μg/kg s.c. twice daily"}, "[8]": {"conditions": "bevacizumab 5 mg/kg twice weekly, intraperitoneal"}}, "note": "Like-named read-outs stand apart in the source and are kept apart here.", "data": [{"compound": "corticorelin acetate [CRF]", "values": [{"measurement": "response of metastatic patients to treatment", "setting": "[1]", "result": "responded very favorably"}, {"measurement": "metastatic patients exhibiting survival beyond the projected 3-6 months", "setting": "[1]; [5]", "result": 3, "unit": "patients"}, {"measurement": "metastatic patients showing a reduction in tumor size at the last timepoint measured", "setting": "[1]; [5]", "result": 2, "unit": "patients"}, {"measurement": "survival after CRF treatment, some patients", "setting": "malignant brain tumor; FIGS. 8 and 9", "result": "1-2 years"}, {"measurement": "patients exhibiting a reduction in tumor size at the last time point measured", "setting": "malignant brain tumor; of the 10 patients of FIG. 9, 2 mg/day s.c.", "result": 8, "unit": "patients"}, {"measurement": "patients exhibiting a reduction in tumor size", "setting": "malignant brain tumor; of the 20 patients of FIG. 8, 2 mg/day (1 mg twice daily) s.c.", "result": 6, "unit": "patients"}, {"measurement": "patients exhibiting a maintenance in tumor size", "setting": "malignant brain tumor; of the 20 patients of FIG. 8, 2 mg/day s.c.", "result": 5, "unit": "patients"}, {"measurement": "patients exhibiting a reduction in tumor size by over 50%", "setting": "malignant brain tumor; of the 20 patients of FIG. 8, after 9 months of treatment, 2 mg/day s.c.", "result": 3, "unit": "patients"}, {"measurement": "patients experiencing a decrease in tumor size", "setting": "malignant brain tumor; of the 30 patients treated for at least 6 months, 2 mg/day s.c.", "result": 10, "unit": "patients"}, {"measurement": "survival of the overwhelming majority of patients", "setting": "malignant brain tumor; projected survival 3-6 months, FIGS. 8 and 9", "result": "live well beyond the projected 3-6 months"}, {"measurement": "reduction in tumor size", "setting": "malignant brain tumor; two of the patients, 2 mg/day s.c.", "result": "around 90%"}, {"measurement": "tumor volume compared to control", "setting": "[2]; [6]", "result": "reduction in tumor volume"}, {"measurement": "brain tumor progression (photon emission)", "setting": "U87 Fluc brain tumor; [7]", "result": "did not progress or progressed more slowly"}, {"measurement": "mean survival time (comparison)", "setting": "U87 Fluc brain tumor; [7]", "result": "between mice, that were administered a high dose of CRF, and mice that had received no treatment or were administered dexamethasone"}, {"measurement": "mice still alive at the end of the 80-day study period", "setting": "U87 Fluc brain tumor; [7]", "result": 60, "unit": "%"}, {"measurement": "survival compared with untreated, dexamethasone or chemotherapeutic agents", "setting": "U87 Fluc brain tumor; [7]", "result": "survived longer"}, {"measurement": "tumor volume compared to control", "setting": "[3]; [6]", "result": "reduction in tumor volume"}, {"measurement": "tumor volume compared to control", "setting": "[4]; [6]", "result": "reduction in tumor volume"}]}, {"compound": "O=NN(CCCl)C(=O)NCCCl", "note": "[BiCNU, carmustine, reference compound]", "values": [{"measurement": "brain tumor progression (photon emission)", "setting": "U87 Fluc brain tumor; BiCNU 20 mg/kg intraperitoneally 5 days/week", "result": "continued to grow"}]}, {"compound": "bevacizumab (Avastin®): angiogenesis inhibitor bevacizumab (Avastin®) [reference compound]", "values": [{"measurement": "tumor volume compared to control", "setting": "[2]; [8]", "result": "reduction in tumor volume"}, {"measurement": "tumor volume compared to control", "setting": "[3]; [8]", "result": "reduction in tumor volume"}, {"measurement": "tumor volume compared to control", "setting": "[4]; [8]", "result": "reduction in tumor volume"}]}, {"compound": "Cn1nnc2c(C(N)=O)ncn2c1=O", "note": "[TMZ, temozolomide, reference compound]", "values": [{"measurement": "mice still alive at the end of the 80-day study period", "setting": "U87 Fluc brain tumor; TMZ 40 mg/kg intraperitoneally 5 days/week", "result": 40, "unit": "%"}]}]}
